{"source": "patent US9326978B2", "about": "“A3 adenosine receptor allosteric modulators” (The United States of America, Represented by the Secretary, …, priority 2006, dated 2016)", "key": {"[1]": {"target": "human A1AR (Homo sapiens (Human), UniProt P30542)", "sequence (P30542 whole entry)": "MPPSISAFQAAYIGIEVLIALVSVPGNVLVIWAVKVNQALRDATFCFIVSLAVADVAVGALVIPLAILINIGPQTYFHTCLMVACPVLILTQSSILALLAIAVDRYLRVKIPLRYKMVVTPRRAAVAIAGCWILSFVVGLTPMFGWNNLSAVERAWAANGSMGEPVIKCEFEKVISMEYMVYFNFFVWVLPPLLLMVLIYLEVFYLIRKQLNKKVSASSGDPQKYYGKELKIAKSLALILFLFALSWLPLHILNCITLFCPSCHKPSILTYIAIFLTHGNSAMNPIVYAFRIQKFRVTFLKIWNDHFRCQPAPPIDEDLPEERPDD", "assay": "Binding assay to the human A1AR ([3H]R-PIA)", "settings": "1 h, 10 μM, CHO cells, read-out: hA1AR % displ. at 10 μM", "method": "(§1) CHO (Chinese hamster ovary) cells expressing the recombinant human ARs (HEK-293 cells were used for the human A2AAR) were cultured in DMEM and F12 (1:1) supplemented with 10% fetal bovine serum, 100 units/ml penicillin, […] streptomycin and 2 μmol/ml glutamine. Cells were harvested by trypsinization. After homogenization and suspension, cells were centrifuged at 500 g for 10 min, and the pellet was re-suspended in 50 mM Tris.HCl buffer (pH 7.4) containing 10 mM MgCl2. The suspension was homogenized with an electric homogenizer for 10 sec, and was then re-centrifuged at 20,000 g for 20 min at 4° C. The resultant pellets were resuspended in buffer in the presence of 3 Units/mL adenosine deaminase, and the suspension was stored at −80° C. until the binding experiments. The protein concentration was measured using the Bradford assay.\n(§2) For binding to the human A1AR, [^3H]R-PIA (2 nM) was incubated with membranes (40 μg/tube) from CHO cells stably expressing the human A1AR at 25° C. for 60 min in 50 mM Tris.HCl buffer (pH 7.4; MgCl2, 10 mM) in a total assay volume of 200 μL. Nonspecific binding was determined using 10 μM of N^6-cyclopentyladenosine. For human A2A AR binding, membranes (20 μg/tube) from HEK-293 cells stably expressing the human A2A AR were incubated with 15 nM [^3H]CGS21680 at 25° C. for 60 min in 200 μL of 50 mM Tris.HCl, pH 7.4, containing 10 mM MgCl2. N-5′-ethyluronamidoadenosine (10 μM) was used to define nonspecific binding. Reaction was terminated by filtration with GF/B filters."}, "[2]": {"target": "human A2A AR (Homo sapiens (Human), UniProt P29274)", "sequence (P29274 whole entry)": "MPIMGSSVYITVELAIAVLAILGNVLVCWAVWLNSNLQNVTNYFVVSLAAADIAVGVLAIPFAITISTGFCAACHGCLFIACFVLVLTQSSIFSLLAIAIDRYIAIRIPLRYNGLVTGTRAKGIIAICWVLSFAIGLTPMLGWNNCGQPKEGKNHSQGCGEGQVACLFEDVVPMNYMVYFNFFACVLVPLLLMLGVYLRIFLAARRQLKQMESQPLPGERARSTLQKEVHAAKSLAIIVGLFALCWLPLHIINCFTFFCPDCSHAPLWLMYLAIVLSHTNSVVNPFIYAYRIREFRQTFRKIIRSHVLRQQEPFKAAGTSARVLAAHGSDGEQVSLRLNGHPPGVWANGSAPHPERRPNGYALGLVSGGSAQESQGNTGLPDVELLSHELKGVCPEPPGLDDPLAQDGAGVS", "assay": "Binding assay to the human A2A AR ([3H]CGS21680)", "settings": "10 μM", "method": "as §1, §2"}, "[3]": {"target": "T1, human A3ARs (Homo sapiens (Human), UniProt P0DMS8)", "T1 sequence (P0DMS8 whole entry)": "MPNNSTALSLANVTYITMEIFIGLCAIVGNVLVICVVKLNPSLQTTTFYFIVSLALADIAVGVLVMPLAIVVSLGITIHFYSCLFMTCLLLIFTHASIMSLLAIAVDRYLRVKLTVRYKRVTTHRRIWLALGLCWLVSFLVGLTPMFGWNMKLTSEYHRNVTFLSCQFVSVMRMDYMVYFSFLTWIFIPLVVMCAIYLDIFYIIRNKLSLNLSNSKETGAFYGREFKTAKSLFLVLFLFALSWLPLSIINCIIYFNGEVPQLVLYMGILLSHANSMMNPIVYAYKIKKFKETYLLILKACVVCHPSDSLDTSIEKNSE", "assay": "Dissociation kinetics of [125I]I-AB-MECA from human A3ARs", "format": "binding", "method": "The dissociation of [^125I]I-AB-MECA was measured as follows. Membranes (20 μg) were preincubated at 25° C. with 0.5 nM [^125I]I-AB-MECA, in a total volume of 100 μl of Tris-HCl buffer (50 mM, pH 8.0) containing 10 mM MgCl2, and 1 mM EDTA for 60 min. The dissociation was then initiated by the addition of 3 μM Cl-IB-MECA with or without allosteric modulators. The time course of dissociation of total binding was measured by rapid filtration at appropriate time intervals. Nonspecific binding was measured after 60-min incubation in the presence of 3 μM Cl-IB-MECA. Further assay was as described above."}, "[4]": {"target": "T1, human A3ARs", "assay": "Cyclic AMP accumulation assay, efficacy at hA3AR", "format": "cell-based", "settings": "compared to maximal effect by 2-Cl-IB-MECA alone (control = 100%)", "method": "Intracellular cyclic AMP levels were measured with a competitive protein binding method (Nordstedt and Fredholm, 1990). CHO cells that expressed recombinant human A3ARs were harvested by trypsinization. After centrifugation and resuspension in medium, cells were plated in 24-well plates in 0.5 ml medium. After 24 hr, the medium was removed and cells were washed three times with 1 ml DMEM, containing 50 mM HEPES, pH 7.4. Cells were then treated with agonists and/or test compounds in the presence of rolipram (10 μM) and adenosine deaminase (3 units/ml). After 45 min forskolin (10 μM) was added to the medium, and incubation was continued an additional 15 min. The reaction was terminated by removing the supernatant, and cells were lysed upon the addition of 200 μL of 0.1 M ice-cold HCl. The cell lysate was resuspended and stored at −20° C. For determination of cyclic AMP production, protein kinase A (PKA) was incubated with [^3H]cyclic AMP (2 nM) in K2HPO4/EDTA buffer (K2HPO4, 150 mM; EDTA, 10 mM), 20 μL of the cell lysate, and 30 μL 0.1 M HCl or 50 μL of cyclic AMP solution (0-16 pmol/200 μL for standard curve). Bound radioactivity was separated by rapid filtration through Whatman GF/C filters and washed once with cold buffer. Bound radioactivity was measured by liquid scintillation spectrometry."}, "[5]": {"target": "hA3AR (Homo sapiens (Human), UniProt P0DMS8)", "sequence (P0DMS8 whole entry)": "as above", "assay": "GTPγS binding at hA3AR", "format": "biochemical"}, "[6]": {"system": "myeloid system", "assay": "Effect on the myeloid system of naïve mice (differential blood count)", "format": "in vivo", "settings": "naïve ICR mice, orally 100 μg/kg thrice daily for two days; blood 24 and 48 hours after last administration; vs control", "method": "A stock solution of imidazoquinoline derivative 45 was prepared by dissolving the same in DMSO. Further dilutions for treatment were performed in PBS. As a control, an equivalent amount of DMSO in PBS was used.\nTo test the effect of imidazoquinoline derivative 45 on the myeloid system, the compound was orally administered at a dose of 100 μg/kg, thrice daily to ICR mice, for two consecutive days. Blood samples were withdrawn 24 and 48 hours after the last drug administration. A differential blood count was performed."}, "[7]": {"system": "adjuvant induced arthritis", "assay": "Adjuvant induced arthritis (AIA) model", "format": "in vivo", "settings": "AIA rats, orally twice daily 100 μg/kg from onset of disease; vs control", "method": "Adjuvant induced arthritis model (model for rheumatoid arthritis (RA)) was established in rats by immunizing the animals with an emulsion contacting Mycobacterium tuberculosis in Freund's adjuvant (Animal Models for Autoimmune and Inflammatory disease:Adjuvant Arthritis in the Rat. Current Protocols in Immunology, Supplement 19, page 15.4.2.). Treatment with imidazoquinoline derivative 45 was initiated upon onset of disease. The imidazoquinoline derivative 45 was administered orally twice daily at a dose of 100 μg/kg.\nEvaluation of disease development was carried out daily, starting upon onset of disease until the end of the study. Intensity of arthritis was scored by grading each paw from 0-4 on erythema, swelling and deformity of the joint, every day: 0=no erythema or swelling; 1=slight erythema or swelling of one of the toes or fingers; 2=erythema and swelling of more than one toe or finger; 3=erythema and swelling of the ankle or wrist; 4=complete erythema and swelling of toes or fingers and ankles or wrist, and inability to bend the ankle or wrist. All scores of the four legs from each rat are added to give up to a maximum arthritic score of 16."}}, "note": "“And” between values parts separate entries of the source, which are not always exact repeats. Equal values may be shown once. Read-outs that look alike come from different tables or passages of the source."}
{"smiles": "Clc1ccc(Nc2nc3ccccc3c3[nH]c(C4CCCCC4)nc23)cc1Cl", "note": "[Compound 45, N-(3,4-Dichloro-phenyl)-2-cyclohexyl-1H-imidazo[4,5-c]quinolin-4-amine]", "values": [{"measurement": "inhibition at 10 µM", "setting": "[1]; [3H]R-PIA, Table 3", "value": "< 10", "unit": "%"}, {"measurement": "inhibition at 10 µM", "setting": "[1]; [3H]R-PIA, Table 4", "value": "< 10", "unit": "%"}, {"measurement": "inhibition at 10 µM", "setting": "[1]; [3H]R-PIA (2.0 nM), Table 2", "value": -2, "unit": "%"}, {"measurement": "hA2AAR % displ. at 10 μM", "setting": "[2]; [3H]CGS 21680 (15 nM), HEK293 cells, Table 2", "value": "−1", "unit": "%"}, {"measurement": "hA2AAR % displ. at 10 μM", "setting": "[2]; [3H]CGS 21680, Table 3", "value": "<10", "unit": "%"}, {"measurement": "hA2AAR % displ. at 10 μM", "setting": "[2]; [3H]CGS 21680, Table 4", "value": "<10", "unit": "%"}, {"measurement": "activity at 10 µM", "setting": "[3]; 0.5 h, % decrease of dissociation at 30 min, residual binding of [125I]AB-MECA after 30 min = 100%, Table 2, read-out: hA3AR Ag. Dissociation at 10 μM", "value": "173 ± 5", "unit": "%"}, {"measurement": "hA3R Ag. Dissociation (%) at 10 μM", "setting": "[3]; % decrease of [125I]I-AB-MECA dissociation at 30 min (control = 100%), Table 3", "value": "173 ± 5", "unit": "%"}, {"measurement": "% Increase of efficacy at hA3AR at 10 μM", "setting": "[4]", "value": "145 ± 7", "unit": "%"}, {"measurement": "Enhancement of GTPγS binding (%) at hA3AR at 10 μM", "setting": "[5]; 10 μM Cl-IB-MECA alone = 100%, Table 3", "value": "194 ± 11% and 177%"}, {"measurement": "Relative efficacy (%) at hA3AR at 10 μM (GTPγS binding) in absence of agonist", "setting": "[5]; absence of agonist, 10 μM Cl-IB-MECA alone = 100%", "value": 6, "unit": "%"}, {"measurement": "Enhancement of GTP[…]S binding (%) at hA3AR at 10 μM", "setting": "[5]; compared to maximal effect by 2-Cl-IB-MECA alone (control), Table 4", "value": "194 ± 11", "unit": "%"}, {"measurement": "number of neutrophils", "setting": "[6]", "value": "increased"}, {"measurement": "number of white blood cells (WBC)", "setting": "[6]", "value": "increased"}, {"measurement": "clinical score (arthritic score, max 16)", "setting": "[7]", "value": "reduction in clinical score"}]}
